Reference: paper PMC4385830, “Group I Paks as therapeutic targets in NF2-deficient meningioma” (Oncotarget, 2015)

Key:
Arachnoid cell AC07 = assay: Cell viability, MTT assay; assay type: cell-based; conditions: NF2+/+, 72 hrs
Method: (§1) Cells were plated at 3 × 10^3 cells per well in 96-well plates overnight and treated with various concentrations of Pak inhibitors for 72 hours. Cell viability was measured by MTT assay and the half maximal inhibitory concentration (IC50) was calculated.

Benign Ben-Men-1 = assay: Cell viability, MTT assay; assay type: cell-based; conditions: for effect on growth of cells: Ben-Men, 3 days, GSK690693 effect only at high doses; for IC50: NF2−/−, 72 hrs, MTT
Method: as §1

Benign MN328 = assay: Cell viability, MTT assay; assay type: cell-based; conditions: NF2+/+, 72 hrs
Method: as §1

Malignant KT21-MG1 = assay: Cell viability, MTT assay; assay type: cell-based; conditions: for effect on growth of cells: KT21, 3 days, GSK690693 effect only at high doses; for IC50: NF2−/−, 72 hrs, MTT
Method: as §1

Malignant MN525 = assay: Cell viability, MTT assay; assay type: cell-based; conditions: NF2+/+, 72 hrs
Method: as §1

Ben-Men cells = assay: Immunoblot of signaling pathways; assay type: cell-based
Method: (§2) Protein concentration was determined, and equal amount of total proteins were separated by SDS-PAGE. […] GAPDH and β-actin were used as loading control.

KT21 or Ben-Men cells = assay: Immunoblot of signaling pathways; assay type: cell-based
Method: as §2

KT21 cells = assay: Apoptosis, Annexin V positive cells by flow cytometry; assay type: cell-based; conditions: 3 days, vs DMSO
Method: For detection of apoptosis, subconfluent cells were plated in 60-mm plate and treated with inhibitors for 3 days. Cells were collected, washed and resuspended in 1x binding buffer with Annexin V-EGFP and propidium iodide (BioVision, CA) and incubated at room temperature for 5 min in dark. Apoptosis was measured using FACS with collecting 10,000 events per sample.

[1] = tested on: KT21-MG1-Luc5D intracranial xenografts; assay: Orthotopic meningioma model, bioluminescence imaging; conditions: SCID mice; oral gavage 90 mg/kg/day; 2 weeks; BLI
From the text: Eight-week-old SCID mice were anesthetized with ketamine and their heads were stabilized in a small animal stereotaxic instrument. A midline sagittal incision was made on the cranial skin. A burr hole was drilled in the skull with coordinated 1.5 mm anterior and 1.5 mm lateral to the right from the bregma and a 5-μl Hamilton syringe loaded with cells was slowly inserted through the burr hole and ~0.5 mm downward to the skull base. The incision was closed using surgical absorbable gut suture.
Mice transplanted with meningioma cells were imaged using Xenogen IVIS Spectrum (Caliper, MA). Mice were injected intraperitoneally with Rediject D-Luciferin Ultra at 150 mg/kg under anesthetized with isofluorane. Luciferase activity was measured and all bioluminescence imaging was conducted when perk signal was reached. Once tumors were established (~3 weeks post-transplantation), mice were divided into groups for shRNA studies or drug treatments.
For drugs treatment, mice were dosed with Pak inhibitors daily for 14–21 days and tumor growth was monitored every week by BLI. Mean luminescence for each treatment groups (n = 5) was calculated as described previously.

CCn1c(-c2nonc2N)nc2c(C#CC(C)(C)O)ncc(OC[C@H]3CCCNC3)c21 [GSK690693]
IC50 (Arachnoid cell AC07): > 20 µM | effect on growth of cells (Benign Ben-Men-1): impeded the growth | IC50 (Benign Ben-Men-1): 3.27 µM | IC50 (Benign MN328): > 20 µM | effect on growth of cells (Malignant KT21-MG1): impeded the growth | IC50 (Malignant KT21-MG1): 4.24 µM | IC50 (Malignant MN525): > 20 µM

Oc1ccc2ccccc2c1SSc1c(O)ccc2ccccc12 [IPA3, reference compound]
basal level (expression) of β-catenin (Ben-Men cells): induction | Pak activity (KT21 or Ben-Men cells; immunoblot): paradoxical stimulation

O=C(NOC[C@H](O)CO)c1ccc(F)c(F)c1Nc1ccc(I)cc1F [PD325901]
IC50 (Arachnoid cell AC07): > 20 µM | effect on growth of cells (Benign Ben-Men-1): no effect | IC50 (Benign Ben-Men-1): > 20 µM | IC50 (Benign MN328): > 20 µM | effect on growth of cells (Malignant KT21-MG1): no effect | IC50 (Malignant KT21-MG1): > 7 µM | IC50 (Malignant MN525): > 20 µM

CCn1c(=O)c(-c2ccc(-c3cncs3)cc2Cl)cc2cnc(Nc3ccc(N4CCN(C)CC4)cc3)nc21 [Frax597]
number of apoptotic cells (KT21 cells): substantial increase | IC50 (Arachnoid cell AC07): 1.18 µM | IC50 (Benign Ben-Men-1): 0.393 µM | IC50 (Benign MN328): 2.81 µM | IC50 (Malignant KT21-MG1): 2.93 µM | IC50 (Malignant MN525): 1.59 µM | impaired KT21 tumor growth compared to vehicle cohort [1]: 50% | basal level (expression) of β-catenin (Ben-Men cells): did not impact | phosphorylation of β-catenin (Ben-Men cells): diminished | phosphorylation of Pak and Mek1 (at Ser298) (KT21 or Ben-Men cells; inhibitors at IC50 concentration): dramatically inhibited
